In ChEMBL document CHEMBL5380792, “Discovery of CZS-241: A Potent, Selective, and Orally Available Polo-Like Kinase 4 Inhibitor for the Treatment of Chronic Myeloid Leukemia” (J Med Chem, 2023):

Columns and labels:
[1] = in vitro; settings: human, liver microsomes
[2] = in vitro; settings: human, plasma
[3] = in vitro; settings: human, plasma; remark: listed apart in the source
[4] = in vitro; settings: human, plasma; remark: listed apart in the source
[5] = in vitro; settings: human, plasma; remark: listed apart in the source
[6] = in vitro; settings: human, liver microsomes; remark: listed apart in the source
[7] = in vitro; settings: human, liver microsomes; remark: listed apart in the source
[8] = in vitro; settings: human, plasma; remark: listed apart in the source

## COc1c(Nc2cc(C)[nH]n2)nc(Sc2ccc(S(=O)(=O)Cc3cccc([N+](=O)[O-])c3F)cc2F)nc1N1CCOCC1
[1]
  remaining at 1 h: 1.7%
[2]
  remaining at 1 h: 95.4%
[3]
  remaining at 2 h: 97.3%
[4]
  remaining at 10 min: 101%
[5]
  remaining at 0.5 h: 95%
[6]
  remaining at 1 h: 98.6%

## O=C(O)Cc1ccccc1Nc1c(Cl)cccc1Cl [DICLOFENAC]
[7]
  half-life: 3.2 min

## CC(C)[N+](C)(CCOC(=O)C1c2ccccc2Oc2ccccc21)C(C)C.[Br-] [PROPANTHELINE BROMIDE]
[8]
  half-life: 19.8 min

## C[C@]12CC[C@H]3[C@@H](CCC4=CC(=O)CC[C@@]43C)[C@@H]1CC[C@@H]2O [TESTOSTERONE]
[7]
  half-life: 11.4 min
